Data as given in publication PMC11417357, “The SAVED domain of the type III CRISPR protease CalpL is a ring nuclease” (Nucleic Acids Research, 2024).
Changes are numbered by the printed parent chain. Like-named read-outs stand apart in the source and are kept apart here.

Tests used:
Test in all cases: SPR, single-cycle kinetics, […] model, CalpL amine-coupled to CM5 chip
Assay type in all cases: binding
Conditions in all cases: 20 mM Tris pH 8, 50 mM NaCl, 0.05% Tween20, 25 °C
CalpL [1] = molecular target: T1, CalpL (Sulfurihydrogenibium sp. YO3AOP1, UniProt Z9OF32SUC9)
T1 construct: codon-optimized CalpL, Lon protease domain plus C-terminal SAVED domain; N-terminal 10xHis-TEV tag removed by TEV protease; expressed in E. coli BL21(DE3); monomer that oligomerizes with cA4
T1 sequence (Z9OF32SUC9 2-496): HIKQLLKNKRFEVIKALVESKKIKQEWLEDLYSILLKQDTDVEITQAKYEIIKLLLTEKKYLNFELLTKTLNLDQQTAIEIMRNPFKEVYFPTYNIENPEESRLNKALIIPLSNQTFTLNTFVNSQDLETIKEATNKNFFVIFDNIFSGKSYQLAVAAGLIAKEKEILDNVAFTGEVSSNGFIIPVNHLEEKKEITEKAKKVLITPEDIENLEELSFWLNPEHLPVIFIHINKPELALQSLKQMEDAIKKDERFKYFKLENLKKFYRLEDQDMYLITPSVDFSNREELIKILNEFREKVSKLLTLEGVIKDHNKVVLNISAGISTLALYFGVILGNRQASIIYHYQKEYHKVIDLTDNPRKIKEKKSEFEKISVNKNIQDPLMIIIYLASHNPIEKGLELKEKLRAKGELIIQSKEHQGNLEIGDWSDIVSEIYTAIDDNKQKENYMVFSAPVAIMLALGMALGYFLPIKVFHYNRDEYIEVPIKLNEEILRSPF

CalpL [2] = molecular target: T2, CalpL (Sulfurihydrogenibium sp. YO3AOP1, UniProt Z9OF32SUC9, H345A)
T2 construct: codon-optimized CalpL, Lon protease domain plus C-terminal SAVED domain; N-terminal 10xHis-TEV tag removed by TEV protease; expressed in E. coli BL21(DE3); monomer that oligomerizes with cA4
T2 sequence (Z9OF32SUC9 2-496 H345A): T1 sequence (Z9OF32SUC9 2-496) with H344A

CalpL [3] = molecular target: T3, CalpL (Sulfurihydrogenibium sp. YO3AOP1, UniProt Z9OF32SUC9, H474A)
T3 construct: codon-optimized CalpL, Lon protease domain plus C-terminal SAVED domain; N-terminal 10xHis-TEV tag removed by TEV protease; expressed in E. coli BL21(DE3); monomer that oligomerizes with cA4
T3 sequence (Z9OF32SUC9 2-496 H474A): T1 sequence (Z9OF32SUC9 2-496) with H473A

CalpL [4] = molecular target: T1, CalpL; remark: listed apart in the source
CalpL [5] = molecular target: T4, CalpL (Sulfurihydrogenibium sp. YO3AOP1, UniProt Z9OF32SUC9, H392A)
T4 construct: codon-optimized CalpL, Lon protease domain plus C-terminal SAVED domain; N-terminal 10xHis-TEV tag removed by TEV protease; expressed in E. coli BL21(DE3); monomer that oligomerizes with cA4
T4 sequence (Z9OF32SUC9 2-496 H392A): T1 sequence (Z9OF32SUC9 2-496) with H391A

CalpL [6] = molecular target: T5, CalpL (Sulfurihydrogenibium sp. YO3AOP1, UniProt Z9OF32SUC9, R361A)
T5 construct: codon-optimized CalpL, Lon protease domain plus C-terminal SAVED domain; N-terminal 10xHis-TEV tag removed by TEV protease; expressed in E. coli BL21(DE3); monomer that oligomerizes with cA4
T5 sequence (Z9OF32SUC9 2-496 R361A): T1 sequence (Z9OF32SUC9 2-496) with R360A

CalpL [7] = molecular target: T6, CalpL (Sulfurihydrogenibium sp. YO3AOP1, UniProt Z9OF32SUC9, R361E)
T6 construct: codon-optimized CalpL, Lon protease domain plus C-terminal SAVED domain; N-terminal 10xHis-TEV tag removed by TEV protease; expressed in E. coli BL21(DE3); monomer that oligomerizes with cA4
T6 sequence (Z9OF32SUC9 2-496 R361E): T1 sequence (Z9OF32SUC9 2-496) with R360E

| Structure (SMILES) | Kd (CalpL [2]) [nM] | Kd (CalpL [3]) [nM] | Kd (CalpL [5]) [nM] | other results |
| --- | --- | --- | --- | --- |
| Nc1ncnc2c1ncn2[C@@H]1O[C@@H]2COP(=O)(O)O[C@H]3[C@@H](F)[C@H](n4cnc5c(N)ncnc54)O[C@@H]3COP(=O)(O)O[C@H]3[C@@H](F)[C@H](n4cnc5c(N)ncnc54)O[C@@H]3COP(=O)(O)O[C@H]3[C@@H](F)[C@H](n4cnc5c(N)ncnc54)O[C@@H]3COP(=O)(O)O[C@H]2[C@H]1F [2′F-cA4] | 18.9 | 0.224 | – | Kd (CalpL [1]; non-hydrolysable analogue, read-out: KD): 1 nM |
| Nc1ncnc2c1ncn2[C@@H]1O[C@H](COP(=O)(O)O[C@H]2[C@@H](O)[C@H](n3cnc4c(N)ncnc43)O[C@@H]2CO)[C@@H](OP(=O)(O)O)[C@H]1O [A2] | – | – | – | KD (CalpL [4]): decrease in affinity of CalpL towards A4 and A2 compared to cA4 |
| Nc1ncnc2c1ncn2[C@@H]1O[C@H](COP(=O)(O)O[C@H]2[C@@H](O)[C@H](n3cnc4c(N)ncnc43)O[C@@H]2COP(=O)(O)O[C@H]2[C@@H](O)[C@H](n3cnc4c(N)ncnc43)O[C@@H]2COP(=O)(O)O[C@H]2[C@@H](O)[C@H](n3cnc4c(N)ncnc43)O[C@@H]2CO)[C@@H](OP(=O)(O)O)[C@H]1O [A4] | – | – | 1.72 | Kd (CalpL [1]; apparent, read-out: apparent KD): 158 nM |
| Nc1ncnc2c1ncn2[C@@H]1O[C@@H]2COP(=O)(O)O[C@H]3[C@@H](O)[C@H](n4cnc5c(N)ncnc54)O[C@@H]3COP(=O)(O)O[C@H]3[C@@H](O)[C@H](n4cnc5c(N)ncnc54)O[C@@H]3COP(=O)(O)O[C@H]3[C@@H](O)[C@H](n4cnc5c(N)ncnc54)O[C@@H]3COP(=O)(O)O[C@H]2[C@H]1O [cA4] | 68.7 | 48.6 | 0.0308 | Kd (CalpL [6]): 0.87 nM; Kd (CalpL [1]; apparent: ligand cleaved on the chip, depends on immobilization density, read-out: apparent KD): 50 nM; Kd (CalpL [7]): 1 nM |
